Experimental data published in patent US6410585B1, “Inhibitors of protein tyrosine phosphatase” (priority 1997, dated 2002).
Where two headings read alike, the source gives them in different places.

Target: T1, rat PTP1 (Rattus norvegicus, UniProt P20417)
T1 construct: a C-terminal truncation of rat PTP1 (amino acid residues 1-322); GST (N, cleaved yes); made in house; host or cells: E. coli strain TG-1 (pGEX-2T)
T1 sequence (P20417 1-322): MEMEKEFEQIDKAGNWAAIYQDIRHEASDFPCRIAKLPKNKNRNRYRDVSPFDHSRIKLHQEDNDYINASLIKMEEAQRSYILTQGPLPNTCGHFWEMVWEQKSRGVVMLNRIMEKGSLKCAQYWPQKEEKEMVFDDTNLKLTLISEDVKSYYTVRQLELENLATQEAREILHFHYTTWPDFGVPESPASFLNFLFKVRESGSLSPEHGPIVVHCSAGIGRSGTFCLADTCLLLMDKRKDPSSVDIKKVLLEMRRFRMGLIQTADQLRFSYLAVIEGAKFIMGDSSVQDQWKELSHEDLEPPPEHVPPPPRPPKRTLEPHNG
Experiment: PTP1 assay, pNPP hydrolysis (rate of change in A405)
Type: biochemical
From the text: PTP1 Assays: A construct, which consisted of a C-terminal truncation of rat PTP1 (amino acid residues 1-322) (cloned from a rat brain library) with an N-terminal glutathione S-transferase (GST) tag and an adjacent thrombin cleavage site, was inserted into vector plasmid pGEX-2T and transformed into E. coli strain TG-1 under the control of a lac promoter (K. L. Guan and J. E. Dixon (1991) Eukaryotic proteins expressed in Escherichia coli: an improved thrombin cleavage and purification procedure of fusion proteins with glutathione S-transferase. Analyt. Biochem. 192: 262-267). The GST-fusion protein was purified on a glutathione agarose affinity column, the GST tag was cleaved with thrombin, and the active enzyme was recovered for use in an assay to identify PTP inhibitors.
PTP1 activity is measured using either p-nitrophenol phosphate (pNPP) or a triphosphopeptide (that matches residues 1142 through 1153 of the β-subunit and the insulin receptor) as substrate in a 96-well microtiter plate format. An assay pH of 7.2 is used for standard assays (measured 405=9800 at pH 7.2).
Standard assays are conducted at room temperature in a total volume of 0.2 ml that contains Hepes buffer (50 mM, pH 7.2), NaCl (50 mM), EDTA (1 mM), DTT (1 mM), bovine serum albumin (1 mg/ml), pNPP (1 mM) and PTP1 (35 ng/ml). Compounds (2 μl of 10 mM solutions) are pipetted into wells of microtiter plates followed by 198 μl of premixed reaction mix (with PTP1 and pNPP added immediately before use). The rate of change in A405 is recorded for 60 min. Two wells on each plate contain DMSO controls and two wells contain sodium orthovanadate (1 mM) which inhibits PTP1-catalyzed hydrolysis of pNPP completely. Data are expressed as percent inhibition relative to the average of the DMSO controls measured on the same microtiter plate.

[1] = Conc 1 uM, pNPP hydrolysis, Table 1, read-out: PTP1 Inhib % Inhib
[2] = Conc 10 uM, pNPP hydrolysis, Table 1, read-out: PTP1 Inhib % Inhib
[3] = Conc 100 uM, pNPP hydrolysis, Table 1, read-out: PTP1 Inhib % Inhib
[4] = Conc 1 uM, pNPP hydrolysis, Table 2, read-out: PTP1 Inhib PTP1N. % Inhib
[5] = Conc 10 uM, pNPP hydrolysis, Table 2, read-out: PTP1 Inhib PTP1N. % Inhib
[6] = Conc 100 uM, pNPP hydrolysis, Table 2, read-out: PTP1 Inhib PTP1N. % Inhib
[7] = inhibition of pNPP-hydrolysis, compound concentration 1 μM, read-out: % Inhibition
[8] = inhibition of pNPP-hydrolysis, compound concentration 10 μM, read-out: % Inhibition
[9] = inhibition of pNPP-hydrolysis, compound concentration 100 μM, read-out: % Inhibition
[10] = Conc 1 uM, pNPP hydrolysis, Table 1
[11] = Conc 100 uM, pNPP hydrolysis, Table 1

SMILES | inhibition at 1 µM [1] [%] | inhibition at 10 µM [2] [%] | inhibition at 100 µM [3] [%] | further results
CCCCCNC(=O)C(Cc1ccc(OC(COO)COO)cc1)NC(=O)NCC(=O)O (stereo not drawn) | 4 | 23 | 75 | 
CCCCCNC(=O)C(Cc1ccc(OC(COO)COO)cc1)NC(=O)N(Cc1ccc(CC(=O)O)cc1)Cc1cccc(C(F)(F)F)c1 (stereo not drawn) |  |  |  | inhibition at 1 µM [4]: 4%; inhibition at 10 µM [5]: 51%; inhibition at 100 µM [6]: 92%
CCCCCNC(=O)C(Cc1ccc(OC(COO)COO)cc1)NC(=O)C(Cc1ccc(OC)cc1)NC(=O)OC(C)(C)C (stereo not drawn) |  |  |  | inhibition at 1 µM [4]: 8%; inhibition at 10 µM [5]: 36%; inhibition at 100 µM [6]: 90%
CCCCCNC(=O)C(Cc1ccc(OC(COO)COO)cc1)NC(=O)C(Cc1ccc(OC(C)(C)C)cc1)NC(=O)CCC(=O)O (stereo not drawn) |  |  |  | inhibition at 1 µM [4]: 37%; inhibition at 10 µM [5]: 83%; inhibition at 100 µM [6]: 97%
O=C(O)COc1ccc(C[C@H](NC(=O)c2ccc(Cl)cc2)C(=O)NCCCCc2ccc(Cl)cc2)cc1C(=O)O [Example 154-20, 2-(carboxymethoxy)-5-((2S)-2-[(4-chlorobenzoyl)amino]-3-{[4-(4-chlorophenyl)butyl]amino}-3-oxopropyl)benzoic acid] |  |  |  | inhibition at 1 µM [7]: 27%; inhibition at 10 µM [8]: 79%; inhibition at 100 µM [9]: 98%
O=C(O)CCC(=O)N[C@@H](Cc1ccc(OC(C(=O)O)C(=O)O)cc1)C(=O)NCCCN1CCOCC1 | 0 | 6 | 35 | 
CCCCCNC(=O)[C@H](Cc1ccc(OC(C(=O)O)C(=O)O)cc1)NC(=O)CC1(CC(=O)O)CCCC1 | 2 | 20 | 72 | 
CCCCCNC(=O)[C@H](Cc1ccc(OC(C(=O)O)C(=O)O)cc1)NC(=O)C(CC(=O)O)NC(=O)CCC(=O)O (stereo partly drawn) | 27 | 75 | 96 | 
NS(=O)(=O)c1ccc(CCNC(=O)C(Cc2ccc(OC(COO)COO)cc2)NC(=O)CCC(=O)O)cc1 (stereo not drawn) | 4 | 19 | 63 | 
O=C(O)CCC(=O)NC(Cc1ccc(OC(COO)COO)cc1)C(=O)NCc1cccc2ccccc12 (stereo not drawn) | 7 | 18 | 61 | 
CCCCCNC(=O)[C@H](Cc1ccc(OC(C(=O)O)C(=O)O)cc1)NC(=O)CC(C)(C)CC(=O)O | 0 | 18 | 67 | 
CCCCCNC(=O)C(Cc1ccc(OC(COO)COO)cc1)NC(=O)NCCC(=O)O (stereo not drawn) | 2 | 21 | 72 | PTP1 Inhib % Inhib [10]: 3%; PTP1 Inhib % Inhib [11]: 74%
CC(C)(C)OC(=O)N[C@@H](Cc1ccccc1)C(=O)N[C@@H](Cc1ccc(OCC(=O)O)c(C(=O)O)c1)C(=O)NCCCc1ccccc1 [Example 157-1, 5-{(2S)-2-({(2S)-2-[(tert-Butoxycarbonyl)amino]-3-phenylpropanoyl}amino)-3-oxo-3-[(3-phenylpropyl)amino]propyl}-2-(carboxymethoxy)benzoic Acid] |  |  |  | inhibition at 1 µM [7]: 39%; inhibition at 10 µM [8]: 84%; inhibition at 100 µM [9]: 97%
CCCCCNC(=O)C(Cc1ccc(OC(COO)COO)cc1)NC(=O)C(Cc1ccc(C(=O)c2ccccc2)cc1)NC(=O)CCc1ccc(O)cc1 (stereo not drawn) |  |  |  | inhibition at 1 µM [4]: 9%; inhibition at 10 µM [5]: 47%; inhibition at 100 µM [6]: 89%
CCCCCNC(=O)C(Cc1ccc(OC(COO)COO)cc1)NC(=O)Nc1cc(C(=O)O)cc(C(=O)O)c1 (stereo not drawn) | 16 | 64 | 94 | 
CCCCCNC(=O)C(Cc1ccc(OC(COO)COO)cc1)NC(=O)C(Cc1ccc(OCc2ccccc2)cc1)N(C)C(=O)OC(C)(C)C (stereo not drawn) |  |  |  | inhibition at 1 µM [4]: 0%; inhibition at 10 µM [5]: 0%; inhibition at 100 µM [6]: 32%
[Na+].[Na+].[Na+].[O]=[V]([O-])([O-])[O-] [sodium orthovanadate, reference compound] |  |  |  | inhibits PTP1-catalyzed hydrolysis of pNPP (1 mM, control wells on each plate): completely

SMILES | inhibition at 1 µM [1] [%] | inhibition at 10 µM [2] [%] | inhibition at 100 µM [3] [%] | further results
O=C(O)COc1ccc(C[C@H](NS(=O)(=O)c2ccccc2)C(=O)NCCCOc2ccccc2)cc1C(=O)O [Example 156-16, 2-(carboxymethoxy)-5-{(2S)-3-oxo-3-[(3-phenoxypropyl)amino]-2-[(phenylsulfonyl)amino]propyl}benzoic acid] |  |  |  | inhibition at 1 µM [7]: 20%; inhibition at 10 µM [8]: 72%; inhibition at 100 µM [9]: 95%
CCCCCNC(=O)C(Cc1ccc(OC(COO)COO)cc1)NC(=O)C(Cc1ccc(C(=O)c2ccccc2)cc1)NC(=O)CCC(=O)O (stereo not drawn) [drawing 133] | 42 | 87 | 98 | 
CCCCCNC(=O)C(Cc1ccc(OS(=O)(=O)O)cc1)NC(=O)CCC(=O)O (stereo not drawn) | 3 | 8 | 80 | 
CCCCCNC(=O)C(Cc1ccc(OC(COO)COO)cc1)NC(=O)CCC(=O)O (stereo not drawn) [drawing 101] |  |  |  | PTP1 Inhib % Inhib [10]: 3%; PTP1 Inhib % Inhib (Conc 10 uM, pNPP hydrolysis, Table 1): 4%; PTP1 Inhib % Inhib [11]: 39%
O=C(O)CCC(=O)N[C@@H](Cc1ccc(OC(C(=O)O)C(=O)O)cc1)C(=O)NCCCn1ccnc1 | 2 | 3 | 26 | 
CCCCCNC(=O)[C@H](Cc1ccc(OC(C(=O)O)C(=O)O)cc1)NC(=O)C1C2CCC(CC2)C1C(=O)O (stereo partly drawn) | 4 | 5 | 41 | 
CCCCCNC(=O)C(Cc1ccc(OC(C(=O)O)C(=O)O)cc1)NC(=O)C(CC(=O)O)NC(=O)OC(C)(C)C (stereo not drawn) | 16 | 62 | 94 | 
O=C(O)CCC(=O)NC(Cc1ccc(OC(COO)COO)cc1)C(=O)NCc1ccc2c(c1)OCO2 (stereo not drawn) | 12 | 24 | 63 | 
O=C(O)COc1ccc(C[C@H](NC(=O)c2ccoc2)C(=O)NCCCCc2ccc(Cl)cc2)cc1C(=O)O [Example 154-26, 2-(carboxymethoxy)-5-[(2S)-3-{[4-(4-chlorophenyl)butyl]amino}-2-(3-furoylamino)-3-oxopropyl]benzoic acid] |  |  |  | inhibition at 1 µM [7]: 30%; inhibition at 10 µM [8]: 78%; inhibition at 100 µM [9]: 97%
CCCCCNC(=O)C(Cc1ccc(OC(COO)COO)cc1)NC(=O)NC(CCC(=O)O)C(=O)O (stereo not drawn) | 17 | 64 | 94 | 
CCCCCCCCCCNC(=O)C(Cc1ccc(OC(COO)COO)cc1)NC(=O)CCC(=O)O (stereo not drawn) | 4 | 3 | 51 | 
COc1ccc(CCCCNC(=O)[C@H](Cc2ccc(OCC(=O)O)c(C(=O)O)c2)NC(=O)c2ccc(Cl)nc2)cc1 [Example 154-34, 2-(carboxymethoxy)-5-((2S)-2-{[(6-chloro-3-pyridinyl)carbonyl]amino}-3-{[4-(4-methoxyphenyl)butyl]amino}-3-oxopropyl)benzoic acid] |  |  |  | inhibition at 1 µM [7]: 26%; inhibition at 10 µM [8]: 77%; inhibition at 100 µM [9]: 96%
CCCCCNC(=O)C(C)(Cc1ccc(OC(C(=O)O)C(=O)O)cc1)NC(=O)CCC(=O)O (stereo not drawn) |  |  |  | inhibition at 1 µM [4]: 3%; inhibition at 10 µM [5]: 6%; inhibition at 100 µM [6]: 34%
CC(C)OCCCNC(=O)[C@H](Cc1ccc(OCC(=O)O)c(C(=O)O)c1)NC(=O)[C@H](Cc1ccccc1)NC(=O)OC(C)(C)C [Example 157-16, 5-{(2S)-2-({(2S)-2-[(tert-Butoxycarbonyl)amino]-3-phenylpropanoyl}amino)-3-[(3-isopropoxypropyl)amino]-3-oxopropyl}-2-(carboxymethoxy)benzoic Acid] |  |  |  | inhibition at 1 µM [7]: 38%; inhibition at 10 µM [8]: 83%; inhibition at 100 µM [9]: 97%
CCCCC/C=C/[C@H](Cc1ccc(OC(C(=O)O)C(=O)O)cc1)NC(=O)CCC(=O)O |  |  |  | inhibition at 1 µM [4]: 1%; inhibition at 10 µM [5]: 14%; inhibition at 100 µM [6]: 70%
CCCCCNC(=O)[C@H](Cc1ccc(OC(C(=O)O)C(=O)O)cc1)NC(=O)COCC(=O)O | 3 | 12 | 53 | 
